What was measured:
Rattus norvegicus [1] = species: Rattus norvegicus; assay: Tested for inhibition of cholesterol biosynthesis in rat; assay type: functional
Squalene synthase [2] = target: T1, Squalene synthase (Rattus norvegicus, UniProt Q02769); assay: Tested for its inhibitory activity against rat microsomal […] squalene synthase (SQS)
T1 sequence (Q02769 whole entry): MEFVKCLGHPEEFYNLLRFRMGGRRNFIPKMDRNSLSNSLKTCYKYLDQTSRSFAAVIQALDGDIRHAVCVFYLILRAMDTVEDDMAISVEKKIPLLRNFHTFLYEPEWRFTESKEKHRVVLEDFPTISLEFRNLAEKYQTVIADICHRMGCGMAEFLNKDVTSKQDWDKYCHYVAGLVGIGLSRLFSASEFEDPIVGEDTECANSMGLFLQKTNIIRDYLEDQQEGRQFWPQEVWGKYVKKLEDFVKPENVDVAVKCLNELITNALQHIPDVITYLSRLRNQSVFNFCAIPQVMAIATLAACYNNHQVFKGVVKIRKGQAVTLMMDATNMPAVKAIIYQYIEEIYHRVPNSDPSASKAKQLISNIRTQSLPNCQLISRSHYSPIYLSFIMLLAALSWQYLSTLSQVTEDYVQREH

Squalene synthase [3] = target: T2, Squalene synthase (Homo sapiens, UniProt P37268); assay: Tested for its inhibitory activity against human microsomal […] squalene synthase (SQS)
T2 sequence (P37268 whole entry): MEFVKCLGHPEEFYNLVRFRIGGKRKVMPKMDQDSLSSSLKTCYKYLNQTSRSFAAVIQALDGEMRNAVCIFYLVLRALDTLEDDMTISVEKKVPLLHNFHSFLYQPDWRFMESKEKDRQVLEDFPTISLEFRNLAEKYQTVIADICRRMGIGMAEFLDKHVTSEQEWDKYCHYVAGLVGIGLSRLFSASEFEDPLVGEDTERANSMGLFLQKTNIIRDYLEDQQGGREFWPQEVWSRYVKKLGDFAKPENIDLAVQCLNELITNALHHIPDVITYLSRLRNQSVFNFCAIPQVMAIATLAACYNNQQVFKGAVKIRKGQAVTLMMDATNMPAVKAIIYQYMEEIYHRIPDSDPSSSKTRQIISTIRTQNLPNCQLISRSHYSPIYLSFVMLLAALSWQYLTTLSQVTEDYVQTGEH

[4] = Plasma half life of hydrolysis of the compound; assay type: ADME, organism-based; conditions: rat
Rattus norvegicus [5] = species: Rattus norvegicus; assay: Tested for inhibition against rat cholesterol biosynthesis; assay type: functional

C=CCc1cc(CCC(=O)O)ccc1C#CC1(O)CN2CCC1CC2.Cl (stereo not drawn)
ED50 (Rattus norvegicus [1]): 1.8 mg/kg

C=CCc1cc(CCC(N)=O)ccc1C#CC1(O)CN2CCC1CC2 (stereo not drawn)
Ki (Squalene synthase [2]): > 250 nM

C=CCc1cc(CCC(=O)OCC)ccc1C#CC1(O)CN2CCC1CC2 (stereo not drawn)
Ki (Squalene synthase [3]): 43 nM | half-life [4]: ≤ 5 min | ED50 (Rattus norvegicus [5]): 1.3 mg/kg | Ki (Squalene synthase [2]): 6 nM

C=CCc1cc(CCC(=O)OCCCCCC)ccc1C#CC1(O)CN2CCC1CC2 (stereo not drawn)
half-life [4]: ≤ 5 min | ED50 (Rattus norvegicus [1]): 1.5 mg/kg

C=CCc1cc(CCC(=O)OCc2ccccc2)ccc1C#CC1(O)CN2CCC1CC2 (stereo not drawn)
half-life [4]: ≤ 5 min | ED50 (Rattus norvegicus [1]): 1.6 mg/kg

C=CCc1cc(CCC(=O)NC)ccc1C#CC1(O)CN2CCC1CC2 (stereo not drawn)
Ki (Squalene synthase [2]): > 250 nM

C=CCc1cc(CCC(=O)OC)ccc1C#CC1(O)CN2CCC1CC2 (stereo not drawn)
ED50 (Rattus norvegicus [5]): 1.3 mg/kg | Ki (Squalene synthase [2]): 20 nM

C=CCc1cc(CCCC(=O)OC)ccc1C#CC1(O)CN2CCC1CC2 (stereo not drawn)
ED50 (Rattus norvegicus [5]): 1.3 mg/kg | Ki (Squalene synthase [2]): 2 nM

C=CCc1cc(CC(=O)OCC)ccc1C#CC1(O)CN2CCC1CC2 (stereo not drawn)
Ki (Squalene synthase [2]): 100 nM

C=CCc1cc(CCCCCC(=O)OC)ccc1C#CC1(O)CN2CCC1CC2 (stereo not drawn)
ED50 (Rattus norvegicus [5]): 1.3 mg/kg | Ki (Squalene synthase [2]): 20 nM

C=CCc1cc(CCC(=O)O)ccc1C#C[C@@]1(O)CN2CCC1CC2.Cl (single isomer, unassigned)
ED50 (Rattus norvegicus [1]): 0.9 mg/kg

C=CCc1cc(CCCCC(=O)OC)ccc1C#CC1(O)CN2CCC1CC2 (stereo not drawn)
ED50 (Rattus norvegicus [5]): 1.3 mg/kg | Ki (Squalene synthase [2]): 8 nM

C=CCc1cc(CCC(=O)N(CC)CC)ccc1C#CC1(O)CN2CCC1CC2 (stereo not drawn)
Ki (Squalene synthase [2]): > 250 nM

C=CCc1cc(CCC#N)ccc1C#CC1(O)CN2CCC1CC2 (stereo not drawn)
Ki (Squalene synthase [2]): > 250 nM

Source: ChEMBL document CHEMBL1129856, “Novel optimised quinuclidine squalene synthase inhibitors” (Bioorg Med Chem Lett, 1997)
